Measurements published in patent US20220233523A1, “ANTIBIOTIC POTENTIATION FOR NONTUBERCULOUS MYCOBACTERIAL DISEASE” (priority 2019, published 2022).
“Also recorded” adds a separate entry of the source.

Experiments:
MAH 3393 biofilm = test: Amikacin with short-chain fatty acids on biofilm of lung isolate MAH 3393; type: cell-based; details: amikacin concentration: 4 mg/ml; untreated 1.0 +/− 0.8 × 10^8
MAH104 biofilms = type: cell-based, Mycobacterium avium subsp hominissuis 104 (MAH104); details: O.D.590 nm, biofilm vs planktonic
Procedure: Metabolic phenotype study was performed with planktonic and biofilm cultures using the 96-well plates PM1 and PM2A (BIOLOG™, Hayward, Calif.). The assays with planktonic cells and biofilms were made at the same time. Each plate contains carbon substrates and one negative control well, in which the bacteria is tested without any substrate. The tests with planktonic and biofilm cultures were performed at the same time and the culture inoculum have the same number of passages. […] The experiments were made as an end-point assay.
The cultures of biofilms were established for 7 days in regular polystyrene 96 well plates, not in PM Biolog plates, as described above with a minor difference. […] (total of 14 days of biofilm incubated at 37° C.). To obtain spectrophotometric measurements from biofilm cultures (O.D.590 nm), the plate was centrifuged for 20 minutes at 3500 rpm at 20° C., which reduce bacteria interference with the readings, and biofilm supernatant was transferred to a new 96 well plates for O.D.590 nm measurement.
Experiments were performed three times as an end-point assay. If planktonic and/or biofilm cultures were able to metabolize a specific metabolite substrate, electrons from NADH reduce the Redox dye in an irreversible reaction that generates a purple color in the PM plate wells. The signal (+) and (−) indicates, respectively, whether a purple color was produced or not. Abiotic reductions of the Redox dye were assessed through adding bacteria-free GN/GP-IF-0a fluid in the wells. Negative control corresponds to the wells without any metabolic substrate.

MAH 3388 biofilm = test: Amikacin with short-chain fatty acids on biofilm of lung isolate MAH 3388; type: cell-based; details: for CFU/mL, MAH 3388: amikacin concentration: 4 mg/ml, untreated 9.4 +/− 0.2 × 10^7; for activity to potentiate Amikacin activity: biofilms of MAH 3388
Procedure: As a negative control, biofilms were incubated only with non-supplemented 7H9 without any antibiotics. […] Subsequently, 100 μl of 0.02% of Triton X-100 (final concentration 0.01%) was added to the established biofilms to mix, dilute and perform CFU analysis with the entire population of biofilms (attached and unattached).
Biofilms were established from an MAH strain isolated from the lungs of a patient (MAH 3388).

[1] = test system: M. avium 104 static biofilms; test: Static biofilm formation in the presence of metabolites (crystal violet); type: cell-based, Mycobacterium avium subsp hominissuis 104 (MAH104); details: for biofilm formation with 1% and 0.5% of fatty acid: 7H9, 7 days at 37° C., crystal violet
Procedure: Static biofilms were used in the present study as described previously (Rose S J, Bermudez L E., Infection and Immunity 2014; 82:405-12). Briefly, mycobacteria were taken from 7H10 agar plates and resuspended in deionized water (10^9 of colony forming units/ml; CFU/ml). The bacterial suspension was then washed 3 times with deionized water to remove any remaining of 7H10 media (3500 rpm for 20 minutes at 20° C.). After washing, the MAH104 were resuspended in 7H9 medium without any carbon sources (OADC, glycerol, tween 20 and tween 80) (non-supplemented 7H9) and suspensions were left alone to allow clumped bacteria to settle. The top half of the suspension was transferred to new tube and adjusted to 1×10^8 CFU/ml, using visual turbidity and optical density. Suspensions were inoculated in 96-well polystyrene plates (BD, Franklin Lakes, N.J.) (100 μl for each well [or 10^7 bacteria per well]) and biofilms were formed at 37° C. for 7 days or for 14 days when indicated. […] The raw O.D. at 570 nm values were discounted from O.D. 570 nm average of blank wells (wells with only 7H9 media).
Assays with biofilms incubated with propionic acid, butyric acid, and glycerol were performed to test whether these metabolites affect the formation of biofilms. All the experiments were made in non-supplemented 7H9. The effect of these metabolites was evaluated during biofilm formation, in pre-established biofilms and in M. avium cells pre-attached to polystyrene. To evaluate the effect of targeted metabolites during biofilm formation, mycobacteria suspensions were prepared and inoculated in 96 wells polystyrene plates, as already described, and biofilms were formed in the presence or not of the short-chain fatty acids at different concentrations (1%, 0.5%, 0.1%, 0.05% and 0.01%). For glycerol, only 0.2% was used. The biofilms were formed in 7H9 media at 37° C. for 7 days. For pre-established biofilms, MAH104 was again inoculated in 96 wells plates and biofilms were formed as described herein. […] It was also evaluated whether these metabolites could promote the growth of MAH104 cells present in biofilms through the measurement of […] every 24 hours. Finally, mycobacteria suspension with low density made in 7H9 broth (containing 1×10^6 bacteria/ml) were seeded in 96 wells polystyrene plates and incubated for 7 days at 37° C. […] The growth of pre-attached bacterial cells was followed every 24 hours through O.D.595 nm. The biofilm formation was evaluated by crystal violet.
The next step was to evaluate the capacity of tested substrates to promote the growth of mycobacteria cells that are present in biofilms. […] MAH 104 cells in the presence of non-supplemented 7H9 were used as a negative control. […]

Row | Structure (SMILES) | CFU/mL, MAH 3393 (MAH 3393 biofilm) | lower capacity of biofilms to use the substrate compared with planktonic cultures (MAH104 biofilms) [fold] | CFU/mL, MAH 3388 (MAH 3388 biofilm) | activity to potentiate Amikacin activity (MAH 3388 biofilm) | biofilm formation with 1% and 0.5% of fatty acid [1] | increase in biofilm formation in comparison with non-supplemented 7H9 ([1]; glycerol 0.2%, 7 days) [×]
1 | CCC(=O)O [Propionic acid] | 1.7 +/− 0.4 × 10^7 CFU/mL | 5.49 | 9.6 +/− 0.4 × 10^7 CFU/mL | confirmed | unable to form biofilm; also recorded: significant decrease | 
2 | OCC(O)CO [Glycerol] |  | 11.14 |  |  |  | 3.2
3 | CCCC(=O)O [Butyric acid] | 6.2 +/− 0.7 × 10^7 CFU/mL |  | 9.7 +/− 0.6 × 10^7 CFU/mL | confirmed | same results; also recorded: significant decrease | 
